Consider six compounds from patent US20100248390A1, “COMPOSITIONS AND METHODS FOR IDENTIFYING LIGANDS OF ODORANT RECEPTORS” (DUKE UNIVERSITY, priority 2009, published 2010).

Assay [1] concerns the target T1, mouse odorant receptors (ORs) (Mus musculus, UniProt P23275).
T1 construct: OR open reading frames were amplified from genomic DNA; expressed in transfected cells; host or cells: Hana3A cells, co-transfected with RTP1S, CRE-luciferase and pRL-SV40
T1 sequence (P23275 1-312): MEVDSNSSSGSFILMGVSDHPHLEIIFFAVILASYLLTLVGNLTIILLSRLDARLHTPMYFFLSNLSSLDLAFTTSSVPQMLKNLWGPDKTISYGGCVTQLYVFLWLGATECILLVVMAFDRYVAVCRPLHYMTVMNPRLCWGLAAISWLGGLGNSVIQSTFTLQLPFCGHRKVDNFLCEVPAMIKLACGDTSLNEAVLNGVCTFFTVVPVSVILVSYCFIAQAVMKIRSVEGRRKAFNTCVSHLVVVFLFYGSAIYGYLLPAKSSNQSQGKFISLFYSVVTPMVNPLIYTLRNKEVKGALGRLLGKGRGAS
In words: CRE-luciferase assay of odorant receptor activation (Dual-Glo, Hana3A cells, RTP1S), dose-response EC50. The conditions noted are these: receptor MOR256-17; read-out: log EC50 of odorant at MOR256-17 (0 = no response) (converted). It is filed as cell-based.

For assay [2], the target named is T2, mouse odorant receptors (ORs) (Mus musculus, UniProt Q8VG42).
T2 construct: OR open reading frames were amplified from genomic DNA; expressed in transfected cells; host or cells: Hana3A cells, co-transfected with RTP1S, CRE-luciferase and pRL-SV40
T2 sequence (Q8VG42 1-310): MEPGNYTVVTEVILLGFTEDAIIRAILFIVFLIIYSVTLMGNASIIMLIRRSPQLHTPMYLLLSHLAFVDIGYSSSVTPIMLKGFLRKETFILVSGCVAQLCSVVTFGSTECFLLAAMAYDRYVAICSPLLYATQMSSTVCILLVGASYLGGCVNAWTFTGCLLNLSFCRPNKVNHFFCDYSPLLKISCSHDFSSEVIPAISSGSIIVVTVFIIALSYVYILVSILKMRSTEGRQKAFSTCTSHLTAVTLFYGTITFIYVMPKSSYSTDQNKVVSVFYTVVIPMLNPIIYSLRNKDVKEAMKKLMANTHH
The assay is described as above. The conditions noted are these: receptor MOR204-6; for log EC50, MOR204-6: 0 = no response. The assay is classed as cell-based.

By EC50 is commonly meant the concentration giving half of the maximal effect.

Regarding `CCCCCCCC(=O)O` [Octanoic Acid], the EC50 in assay [1] was 38.9 µM.

On to `CCCCCCCCC(=O)O` [Nonanoic acid], for which, in assay [1], the EC50 was 20.2 µM.

`C=C(C)C1CC=C(C)C(=O)C1` (single isomer, unassigned; (-)) [(−)-Carvone]: the “log EC50, MOR204-6” value in assay [2] is listed as −3.625.

In the case of `O=c1ccc2ccccc2o1` [Coumarin], the 50% effective concentration (EC50) in assay [2] (read-out: log EC50 (Table 4 value), MOR204-6 (converted)) was 7.96 µM.

For the compound `CCCCCCCCS` [Octanethiol], in assay [1], the EC50 was 40.9 µM.

With `C=C(C)[C@H]1CC=C(C)C(=O)C1` [(+)-Carvone], the “log EC50, MOR204-6” value in assay [2] was −3.85.
